Data from ChEMBL document CHEMBL5537172 (J Med Chem, 2024).
The source made the active and inactive calls. The calls are words filed in the database; no cut-off is given here.

Experiments:
[1] = molecular target: Protein kinase C gamma type (Homo sapiens, UniProt P05129); experiment: Inhibition of PKCgamma (unknown origin)
[2] = Half-life in rat at 1 mg/kg, iv measured upto 24 hrs by LC-MS/MS analysis; type: ADME, organism-based; details: in vivo
[3] = molecular target: T1, Protein kinase C beta type (Homo sapiens, UniProt P05771); experiment: Inhibition of PKCbeta1 (unknown origin)
T1 sequence (P05771 whole entry): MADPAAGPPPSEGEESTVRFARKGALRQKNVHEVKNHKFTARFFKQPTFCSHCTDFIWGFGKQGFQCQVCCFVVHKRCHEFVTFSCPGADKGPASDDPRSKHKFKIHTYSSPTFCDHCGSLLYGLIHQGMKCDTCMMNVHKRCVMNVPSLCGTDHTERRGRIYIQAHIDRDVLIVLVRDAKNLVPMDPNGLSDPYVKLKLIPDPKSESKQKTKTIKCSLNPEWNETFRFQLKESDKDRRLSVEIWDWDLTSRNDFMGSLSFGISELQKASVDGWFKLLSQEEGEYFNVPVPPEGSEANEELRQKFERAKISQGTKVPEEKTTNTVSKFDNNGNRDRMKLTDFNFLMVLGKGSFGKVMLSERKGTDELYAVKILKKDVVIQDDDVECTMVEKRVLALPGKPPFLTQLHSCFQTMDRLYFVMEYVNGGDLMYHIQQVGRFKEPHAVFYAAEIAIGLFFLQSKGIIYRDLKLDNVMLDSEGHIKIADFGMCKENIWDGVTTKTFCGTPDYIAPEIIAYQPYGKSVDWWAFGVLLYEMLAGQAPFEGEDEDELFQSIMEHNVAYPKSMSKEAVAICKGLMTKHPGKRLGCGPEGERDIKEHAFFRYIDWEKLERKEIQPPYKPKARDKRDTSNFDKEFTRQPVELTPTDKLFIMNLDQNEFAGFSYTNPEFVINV

[4] = test system: 92-1; experiment: Antitumor activity against human 92-1 cells xenografted in mouse assessed as tumor suppression at 75 mg/kg, po administered twice daily measured after compound withdrawal; type: functional, organism-based
[5] = Clearance in mouse at 1 mg/kg, iv measured upto 24 hrs by LC-MS/MS analysis; type: ADME, organism-based; details: in vivo
[6] = Dissociation constant, pKa of compound; type: physicochemical
[7] = Volume of distribution at steady state in rat at 1 mg/kg, iv measured upto 24 hrs by LC-MS/MS analysis; type: ADME, organism-based; details: in vivo, read-out: Vdss
[8] = test system: Mus musculus; experiment: In vivo inhibition of PKCdelta in mouse xenografted with human 92-1 cells assessed as reduction in phosphorylated levels at 15 to 72 mg/kg, po; type: functional, organism-based; details: dose lower […], dose upper […]
[9] = Oral bioavailability in mouse at 10 mg/kg measured upto 24 hrs by LC-MS/MS analysis; type: ADME, organism-based; details: in vivo
[10] = Clearance in dog at 0.3 mg/kg, iv measured upto 24 hrs by LC-MS/MS analysis; type: ADME, organism-based, Canis lupus familiaris; details: in vivo
[11] = test system: SK-MEL-28; experiment: cells; details: Homo sapiens
[12] = AUCinfinity in mouse at 10 mg/kg, po measured upto 24 hrs by LC-MS/MS analysis; type: ADME, organism-based; details: in vivo
[13] = molecular target: Protein kinase C delta type (Homo sapiens, UniProt Q05655); experiment: Inhibition of PKCdelta (unknown origin)
Sequence of Protein kinase C delta type (Q05655 whole entry): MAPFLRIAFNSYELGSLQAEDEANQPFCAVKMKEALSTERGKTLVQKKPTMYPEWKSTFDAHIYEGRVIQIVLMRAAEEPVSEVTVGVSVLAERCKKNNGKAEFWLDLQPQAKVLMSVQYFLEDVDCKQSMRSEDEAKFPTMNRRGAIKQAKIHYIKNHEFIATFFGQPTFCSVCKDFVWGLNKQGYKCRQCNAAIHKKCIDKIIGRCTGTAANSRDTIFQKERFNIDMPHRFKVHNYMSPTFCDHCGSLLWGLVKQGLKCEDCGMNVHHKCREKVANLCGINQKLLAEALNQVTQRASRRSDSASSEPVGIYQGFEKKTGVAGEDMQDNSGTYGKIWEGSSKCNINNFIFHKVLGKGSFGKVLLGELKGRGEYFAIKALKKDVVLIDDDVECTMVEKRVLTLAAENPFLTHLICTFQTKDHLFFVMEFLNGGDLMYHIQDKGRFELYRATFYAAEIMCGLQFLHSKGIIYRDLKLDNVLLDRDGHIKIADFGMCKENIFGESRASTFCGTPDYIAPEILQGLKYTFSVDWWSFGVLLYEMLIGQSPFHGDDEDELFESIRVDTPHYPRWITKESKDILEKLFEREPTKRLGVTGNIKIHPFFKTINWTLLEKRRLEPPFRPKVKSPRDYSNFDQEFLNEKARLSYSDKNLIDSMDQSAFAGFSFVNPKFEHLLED

[14] = molecular target: T1, Protein kinase C beta type; experiment: Inhibition of PKCbeta2 (unknown origin)
[15] = Half life in mouse at 1 mg/kg, iv measured upto 24 hrs by LC-MS/MS analysis; type: ADME, organism-based; details: in vivo
[16] = test system: 92-1; experiment: Antitumor activity against human 92-1 cells xenografted in po dosed mouse assessed as tumor suppression administered twice daily; type: functional, organism-based; details: dose lower […], dose upper 75.0 mg/kg
[17] = Clearance in rat at 1 mg/kg, iv measured upto 24 hrs by LC-MS/MS analysis; type: ADME, organism-based; details: in vivo
[18] = Half-life in dog at 0.3 mg/kg, iv measured upto 24 hrs by LC-MS/MS analysis; type: ADME, organism-based, Canis lupus familiaris; details: in vivo
[19] = AUCinfinity in rat at 3 mg/kg, po measured upto 24 hrs by LC-MS/MS analysis; type: ADME, organism-based; details: in vivo
[20] = Cmax in mouse at 10 mg/kg, po measured upto 24 hrs by LC-MS/MS analysis; type: ADME, organism-based; details: in vivo
[21] = Tmax in dog at 3 mg/kg, po measured upto 24 hrs by LC-MS/MS analysis; type: ADME, organism-based, Canis lupus familiaris; details: in vivo
[22] = Oral bioavailability in rat at 3 mg/kg measured upto 24 hrs by LC-MS/MS analysis; type: ADME, organism-based; details: in vivo
[23] = cells; details: Homo sapiens, 92-1, 72 h
[24] = Oral bioavailability in dog at 3 mg/kg measured upto 24 hrs by LC-MS/MS analysis; type: ADME, organism-based, Canis lupus familiaris; details: in vivo
[25] = molecular target: Protein kinase C eta type (Homo sapiens, UniProt P24723); experiment: Inhibition of PKCeta (unknown origin)
Sequence of Protein kinase C eta type (P24723 whole entry): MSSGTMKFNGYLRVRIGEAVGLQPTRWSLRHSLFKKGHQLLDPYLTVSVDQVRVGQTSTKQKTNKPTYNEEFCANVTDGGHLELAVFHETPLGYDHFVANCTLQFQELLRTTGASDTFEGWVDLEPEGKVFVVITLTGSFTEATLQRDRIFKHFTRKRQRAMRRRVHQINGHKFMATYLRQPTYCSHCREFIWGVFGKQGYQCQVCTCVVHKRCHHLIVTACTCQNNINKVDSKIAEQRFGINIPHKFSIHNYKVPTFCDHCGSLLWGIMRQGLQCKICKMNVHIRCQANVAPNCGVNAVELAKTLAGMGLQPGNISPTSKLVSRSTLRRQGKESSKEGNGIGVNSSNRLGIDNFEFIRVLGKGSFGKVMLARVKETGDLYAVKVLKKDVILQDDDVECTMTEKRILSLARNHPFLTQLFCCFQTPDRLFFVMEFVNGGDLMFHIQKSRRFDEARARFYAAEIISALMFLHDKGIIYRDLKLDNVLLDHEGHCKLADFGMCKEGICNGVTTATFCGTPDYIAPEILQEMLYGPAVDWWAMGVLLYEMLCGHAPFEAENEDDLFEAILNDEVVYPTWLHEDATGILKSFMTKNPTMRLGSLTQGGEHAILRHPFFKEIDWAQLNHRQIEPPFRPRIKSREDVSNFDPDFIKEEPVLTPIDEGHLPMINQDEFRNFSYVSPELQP

[26] = Volume of distribution at steady state in mouse at 1 mg/kg, iv measured upto 24 hrs by LC-MS/MS analysis; type: ADME, organism-based; details: in vivo, read-out: Vdss
[27] = Cmax in rat at 3 mg/kg, po measured upto 24 hrs by LC-MS/MS analysis; type: ADME, organism-based; details: in vivo
[28] = AUCinfinity in rat at 1 mg/kg, iv measured upto 24 hrs by LC-MS/MS analysis; type: ADME, organism-based; details: in vivo
[29] = Volume of distribution at steady state in dog at 0.3 mg/kg, iv measured upto 24 hrs by LC-MS/MS analysis; type: ADME, organism-based, Canis lupus familiaris; details: in vivo, read-out: Vdss
[30] = AUCinfinity in mouse at 1 mg/kg, iv measured upto 24 hrs by LC-MS/MS analysis; type: ADME, organism-based; details: in vivo
[31] = Cmax in dog at 3 mg/kg, po measured upto 24 hrs by LC-MS/MS analysis; type: ADME, organism-based, Canis lupus familiaris; details: in vivo
[32] = Tmax in mouse at 10 mg/kg, po measured upto 24 hrs by LC-MS/MS analysis; type: ADME, organism-based; details: in vivo
[33] = Tmax in rat at 3 mg/kg, po measured upto 24 hrs by LC-MS/MS analysis; type: ADME, organism-based; details: in vivo
[34] = AUCinfinity in dog at 0.3 mg/kg, iv measured upto 24 hrs by LC-MS/MS analysis; type: ADME, organism-based, Canis lupus familiaris; details: in vivo
[35] = AUCinfinity in dog at 3 mg/kg, po measured upto 24 hrs by LC-MS/MS analysis; type: ADME, organism-based, Canis lupus familiaris; details: in vivo
[36] = molecular target: T2, Protein kinase C epsilon type (Homo sapiens, UniProt Q02156); experiment: Inhibition of PKCepsilon (unknown origin)
T2 sequence (Q02156 whole entry): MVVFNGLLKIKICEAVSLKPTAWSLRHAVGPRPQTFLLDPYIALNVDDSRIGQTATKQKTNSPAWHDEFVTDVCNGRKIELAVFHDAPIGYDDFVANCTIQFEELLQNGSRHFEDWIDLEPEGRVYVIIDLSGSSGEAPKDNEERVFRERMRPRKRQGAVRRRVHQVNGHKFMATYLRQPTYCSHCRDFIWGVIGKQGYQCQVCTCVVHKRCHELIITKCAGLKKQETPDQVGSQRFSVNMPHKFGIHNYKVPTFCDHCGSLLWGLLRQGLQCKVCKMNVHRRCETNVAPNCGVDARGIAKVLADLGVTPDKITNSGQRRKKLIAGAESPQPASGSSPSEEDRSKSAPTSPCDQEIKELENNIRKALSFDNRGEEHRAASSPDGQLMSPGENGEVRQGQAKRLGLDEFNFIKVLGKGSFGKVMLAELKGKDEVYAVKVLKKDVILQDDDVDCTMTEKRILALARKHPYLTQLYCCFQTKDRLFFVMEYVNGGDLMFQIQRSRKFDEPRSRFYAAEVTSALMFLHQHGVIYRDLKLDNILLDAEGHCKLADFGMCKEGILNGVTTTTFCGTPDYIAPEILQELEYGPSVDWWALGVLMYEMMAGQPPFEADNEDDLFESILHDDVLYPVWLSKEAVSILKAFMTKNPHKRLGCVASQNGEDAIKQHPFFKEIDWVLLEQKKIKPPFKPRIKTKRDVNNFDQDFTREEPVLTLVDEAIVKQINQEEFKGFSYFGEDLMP

[37] = Toxicity in mouse xenografted with human 92-1 cells assessed as body weight loss at 15 to 150 mg/kg, po bid; type: organism-based; details: in vivo, dose 15-150 mg/kg
[38] = molecular target: 5-hydroxytryptamine receptor 2B (Homo sapiens, UniProt P41595); experiment: Agonist activity at 5HT2B (unknown origin); type: toxicity
Sequence of 5-hydroxytryptamine receptor 2B (P41595 whole entry): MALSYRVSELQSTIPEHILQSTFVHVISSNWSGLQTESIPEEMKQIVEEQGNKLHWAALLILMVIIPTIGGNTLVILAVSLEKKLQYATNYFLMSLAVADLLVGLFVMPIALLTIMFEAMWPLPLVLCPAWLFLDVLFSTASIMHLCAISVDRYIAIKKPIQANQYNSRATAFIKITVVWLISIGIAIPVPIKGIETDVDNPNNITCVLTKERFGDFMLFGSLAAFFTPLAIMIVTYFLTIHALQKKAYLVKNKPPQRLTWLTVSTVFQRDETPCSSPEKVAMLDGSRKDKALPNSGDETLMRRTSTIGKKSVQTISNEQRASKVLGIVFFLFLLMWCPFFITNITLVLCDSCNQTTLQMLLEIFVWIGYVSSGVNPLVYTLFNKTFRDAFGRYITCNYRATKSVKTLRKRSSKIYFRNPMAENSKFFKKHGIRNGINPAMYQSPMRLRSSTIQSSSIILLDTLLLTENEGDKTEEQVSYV

[39] = Toxicity in mouse xenografted with human 92-1 cells assessed as body weight loss at 75 to 150 mg/kg, po bid; type: organism-based; details: in vivo, dose 75-150 mg/kg
[40] = test system: 92-1; experiment: Antitumor activity against human 92-1 cells xenografted in mouse assessed as tumor suppression at 75 to 150 mg/kg, po administered twice daily; type: functional, organism-based; details: dose lower 75.0 mg/kg, dose upper […]

For `CC1(N)CCN(c2cccnc2NC(=O)c2nc(-c3ncccc3C(F)(F)F)cnc2N)CC1` [DAROVASERTIB], the IC50 [1] was 109 nM, the half-life [2] was 5.7 h and the IC50 [3] was 66 nM. For the same compound, the Activity [4] was “inactive”, the clearance [5] was 26 mL/min/kg and the pKa [6] was 9. The Vd [7] was 3.4 L/kg, the Activity [8] was “Active” and the bioavailability [9] was 17%. The clearance [10] was 5 mL/min/kg, the IC50 [11] was > 10000 nM and the AUC(0-inf) [12] was 2.17 µM·h. It also gave an IC50 [13] of 6.9 nM, an IC50 [14] of 58 nM and a half-life [15] of 1.1 h. For the same compound, the Activity [16] was “Dose-Dependent Effect”, the clearance [17] was 24 mL/min/kg and the half-life [18] was 4.4 h. It also gave an AUC(0-inf) [19] of 2.39 µM·h, a Cmax [20] of 667 nM and a Tmax [21] of 0.5 h. For the same compound, the bioavailability [22] was 55%, the EC50 [23] was 170 nM and the bioavailability [24] was 76%. For the same compound, the IC50 [25] was 13.3 nM, the Vd [26] was 1.6 L/kg and the Cmax [27] was 509 nM. It also gave an AUC(0-inf) [28] of 1.45 µM·h, a Vd [29] of 1.4 L/kg and an AUC(0-inf) [30] of 1.36 µM·h. It also gave a Cmax [31] of 6120 nM, a Tmax [32] of 2 h and a Tmax [33] of 0.3 h. It also gave an AUC(0-inf) [34] of 2.59 µM·h, an AUC(0-inf) [35] of 21.4 µM·h and an IC50 [36] of 2.9 nM. For the same compound, the Activity [37] was “Non-Toxic”, the EC50 [38] was > 30000 nM and the Activity [39] was “Non-Toxic”. For the same compound, the Activity [40] was “Active”.
